Measured values taken from patent publication US12133901B2, “PSMA ligand targeted compounds and uses thereof” (CASE WESTERN RESERVE UNIVERSITY, priority 2019, dated 2024).
pIC50: −log10 of the molar value. Numbered stars: 1 amine (or outer) side, 2 acyl side, 3 side chain; on linkers, the order of the positions; unused ones are H or OH. Square brackets hold non-standard residues; d marks the D form. Peptide text beside a SMILES is read from it. γGlu = O=C(O)[C@H](CCC(=O)[*:2])N[*:1]; X1 = O=C(C1CCC(CN[*:1])CC1)[*:2]; CO = O=C([*:1])[*:2]; Ahx = NCCCCCC(=O)O

Biological target: T1, PSMA (Homo sapiens, UniProt Q04609)
T1 construct: LNcap cells were trypsinized and washed with cold Tris buffer; endogenous in cells; host or cells: LNCaP cells (printed 'LNcap'), whole-cell suspension
Assay: Competition binding assay against 3H-ZJ24
Conditions: PSMA-expressing LNcap cells, 12 nM 3H-labelled ZJ24, 1 h at 37° C.; read-out: IC50 (concentration of ligand required to inhibit 50% of binding)
Protocol: LNcap cells were trypsinized and washed with cold Tris buffer (0.5 mM). […] Each group was done in triplicate. The mixture was then centrifuged and washed three times with cold PBS. Finally, 4 m L of EcoLume cocktail (MP biomedicals) was added to each sample, and radioactivity was counted by a scintillation counter. The concentration of ligands required to inhibit 50% of binding (IC50) was determined by GraphPad Prism 3.0.

T1 sequence (Q04609 whole entry): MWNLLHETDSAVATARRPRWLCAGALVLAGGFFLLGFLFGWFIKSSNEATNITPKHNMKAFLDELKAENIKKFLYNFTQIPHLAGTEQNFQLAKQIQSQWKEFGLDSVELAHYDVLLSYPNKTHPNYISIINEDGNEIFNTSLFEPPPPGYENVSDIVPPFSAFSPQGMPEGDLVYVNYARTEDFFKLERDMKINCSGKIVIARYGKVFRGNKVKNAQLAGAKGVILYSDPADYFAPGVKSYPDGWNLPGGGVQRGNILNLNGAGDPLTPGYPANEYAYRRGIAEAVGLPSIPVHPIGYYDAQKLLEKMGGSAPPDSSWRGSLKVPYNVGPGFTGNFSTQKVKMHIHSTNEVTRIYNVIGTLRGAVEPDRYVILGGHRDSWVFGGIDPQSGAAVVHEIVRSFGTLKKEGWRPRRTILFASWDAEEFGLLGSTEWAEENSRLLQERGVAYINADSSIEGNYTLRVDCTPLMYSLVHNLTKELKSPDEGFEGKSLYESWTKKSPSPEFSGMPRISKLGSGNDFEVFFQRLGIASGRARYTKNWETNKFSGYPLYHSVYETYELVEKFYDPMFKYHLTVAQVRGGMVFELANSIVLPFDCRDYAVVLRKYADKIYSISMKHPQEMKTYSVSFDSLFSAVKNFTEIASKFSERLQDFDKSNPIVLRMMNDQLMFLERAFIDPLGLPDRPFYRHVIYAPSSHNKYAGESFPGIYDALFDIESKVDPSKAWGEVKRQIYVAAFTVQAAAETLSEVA

Row | pIC50 | Structure (SMILES)
1 | 8.77 | NCCCC[C@H](NC(=O)[C@H](CCC(=O)O)NC(=O)[C@H](CCC(=O)O)NC(=O)[C@H](CCC(=O)O)NC(=O)CCCCCNC(=O)C1CCC(CNC(=O)CC[C@H](NC(=O)N[C@@H](CCC(=O)O)C(=O)O)C(=O)O)CC1)C(=O)N[C@@H](Cc1ccc(O)cc1)C(=O)N[C@@H](CS)C(N)=O (stereo partly drawn) [CY-PSMA-1, Glu-CO-Glu′-Amc-Ahx-Glu-Glu-Glu-Lys-Tyr-Cys-NH2] ({Glu-CO-γGlu}-[X1][Ahx]EEEKYC-NH2)
2 | 8.08 | CSC[C@H](NC(=O)N[C@@H](CCC(=O)O)C(=O)O)C(=O)O [ZJ24]
